# Measurements from patent US10918734B2 (Immunomedics, Inc., priority 2017, dated 2021).
# Like-named read-outs stand apart in the source and are kept apart here.
# Columns and labels:
# p21^Waf1/Cip1 = assay: p21Waf1/Cip1 expression in tumor cells; format: cell-based, human
# Description: (§1) SN-38 is known to activate several signaling pathways in cells, leading to apoptosis (e.g., Cusack et al., 2001, Cancer Res 61:3535-40; Liu et al. 2009, Cancer Lett 274:47-53; Lagadec et al., 2008, Br J Cancer 98:335-44). Our initial studies examined the expression of 2 proteins involved in early signaling events (p21^Waf1/Cip1 and p53) and 1 late apoptotic event [cleavage of poly-ADP-ribose polymerase (PARP)] in vitro (not shown).
# p53 = p53 expression in tumor cells; format: cell-based, human; conditions: BxPC-3 and Calu-3
# Description: as §1
# (§2) In addition, p53 expression in cells exposed to the ADC was higher in both cell lines compared to SN-38 (not shown). […] In terms of later apoptotic events, cleavage of PARP was evident in both cell lines when incubated with either SN-38 or the conjugate (not shown). […] The higher degree of cleavage with free SN-38 over the ADC was consistent with the cytotoxicity findings.
# [1] = tested on: SK-MES-1 human squamous cell lung tumors; assay: SK-MES-1 xenograft therapy; parameters: species or system nude mice; conditions: mouse, in vivo
# MDA-MB-231 tumors = assay: MDA-MB-231 parental tumor therapy; format: in vivo, mice
# Protocol: (§3) Rad51 and DNA-breaks (g-H2A.X) were determined by Western blot. […] Tumors were measured and mice weighed twice weekly. Study survival endpoint was tumor progression to >1.0 cm^3.
# C13 tumors = assay: MDA-MB-231 Trop-2 transfectant C13 tumor therapy; format: in vivo, mice; conditions: for median survival time (MST): IMMU-132 0.5 mg twice wkly × 4, irinotecan 40 mg/kg q2dx5
# Protocol: as §3
# C39 tumors = assay: MDA-MB-231 Trop-2 transfectant C39 tumor therapy; format: in vivo, mice; conditions: for median survival time (MST): IMMU-132 0.5 mg twice wkly × 4, irinotecan 40 mg/kg q2dx5
# Protocol: as §3
# [2] = plasma esterase; cited from earlier work
# Rad51 [3] = assay: Rad51 expression in tumors taken from treated mice; format: in vivo; conditions: parental, C13 and C39 tumors
# [4] = tested on: SK-MES-1 squamous cell lung carcinoma; assay: SK-MES-1 antitumor effect (FIG. 18); format: in vivo
# Capan-1 tumors = assay: Capan-1 xenograft therapy; format: in vivo, nude mice; conditions: day 140; 0.2 mg/kg SN-38 twice weekly x 4 weeks
# [5] = tested on: poly-ADP-ribose polymerase (PARP); assay: Cleavage of PARP in tumor cells; format: cell-based, human; conditions: BxPC-3 and Calu-3
# Description: as §1, §2
# [6] = mouse, in vivo
# [7] = Tolerability in Cynomolgus monkeys; format: in vivo, Cynomolgus monkeys (Macaca fascicularis)
# [8] = tested on: BxPC3 human pancreatic carcinoma; conditions: FIG. 2
# Calu-3 tumors = assay: Calu-3 xenograft therapy; format: in vivo, nude mice; conditions: 0.4 mg/kg SN-38; tumor-free until day 147
# [9] = tested on: human SCLC tumors (DMS 53); format: in vivo, C.B.-17 SCID mice
# Protocol: Female C.B.-17 SCID mice were injected s.c. with a tumor suspension made from of DMS 53 stock tumors (20% w/v) plus cells harvested from tissue culture (5×10^6 cells per mouse) mixed 1:1 with matrigel. […] All were administered twice weekly for 4 weeks. Two groups received only chemotherapy of either cisplatinum (5 mg/kg i.p.) or carboplatin (50 mg/kg i.p.) weekly for 4 weeks. […] A final untreated control group of mice received saline (100 μL i.p. twice weekly×4 wks). Tumors were measured and mice weighed twice weekly.
# [10] = human, in vivo
# advanced GI cancers = assay: Phase I/II trial of IMMU-132 in advanced GI cancers: best response by RECIST, TTP; format: in vivo, human
# Protocol: Patients with metastatic cancers were enrolled after failing standard therapy, starting at a dose of 8.0 mg/kg given on days 1 and 8 of a 3-week cycle.
# Sixty patients with advanced GI cancers were enrolled in a Phase I/II trial.
# [11] = tested on: diverse metastatic cancers; assay: Phase I/II clinical trial of IMMU-132 (Example 8): response and TTP; format: in vivo, human
# HCC1806 TNBC = HCC1806 TNBC antitumor effect (FIG. 17); format: in vivo
# Rad51 [12] = assay: Rad51 levels by Western blot in cells exposed to IMMU-132; format: cell-based, human; conditions: for increase in Rad51 level: MDA-MB-231, 24-h exposure
# Protocol: as §3
# [13] = human, in vivo; remark: listed apart in the source
# [14] = Tolerability in Swiss-Webster mice; conditions: normal mice; 1,500 mg/kg of the conjugate
# [15] = day 73, IMMU-132 250 μg (alone twice weekly, in combination weekly)
compound,measurement,setting,value
hRS7 IgG,effect on p21Waf1/Cip1 expression,p21^Waf1/Cip1,no appreciable effect
same,exposure time at which upregulation of p53 was evident,p53,48 h
"CCc1c2c(nc3ccc(OC(=O)N4CCC(N5CCCCC5)CC4)cc13)-c1cc3c(c(=O)n1C2)COC(=O)[C@]3(O)CC [irinotecan, reference compound]",antitumor effect vs specific hRS7-SN-38 conjugate,[1],provided the same antitumor effects
same,median survival time,MDA-MB-231 tumors; 40 mg/kg q2dx5,26.5 days
same,median survival time,C13 tumors; 40 mg/kg q2dx5,35 days
same,median survival time (MST),C13 tumors,35 days
same,median survival time (MST),C39 tumors,28 days
same,conversion rate to SN-38,[2],greater than 50%
same,Rad51 in tumors from treated mice,Rad51 [3],up-regulation of Rad51 within 24 h
same,antitumor effects,[4],significant antitumor effects
hA20-CL2A-SN-38 [reference compound],antitumor effect vs specific hRS7-SN-38 conjugate,[1],provided the same antitumor effects
same,mice tumor-free at end of study,Capan-1 tumors,20%
"CCc1c2c(nc3ccc(O)cc13)-c1cc3c(c(=O)n1C2)COC(=O)[C@]3(O)CC [SN-38, reference compound]",cleavage of PARP,[5],evident
same,exposure time at which upregulation of p53 was evident,p53,48 h
hRS7-CL2A-SN-38,AST level,[6],> 298 U/L
same,histology at termination,[6],no histologic evidence of tissue damage
same,glucose levels (slightly elevated),[6]; 8 mg/kg,273 to 320 mg/dL
same,mice with slightly elevated glucose levels,[6]; 8 mg/kg,5 of 7
same,blood count data,"[7]; 2×0.96 mg SN-38/kg, transient decreases",values did not fall below normal ranges
same,human equivalent dose of MTD (2 doses),"[7]; cynomolgus monkey, in vivo",0.3-0.6 mg/kg SN-38
same,therapeutic efficacy vs control treatments,[8],better therapeutic efficacy than control treatments
same,increase in p21Waf1/Cip1 expression over free SN-38,p21^Waf1/Cip1; Calu-3,more than 2 fold
same,cleavage of PARP,[5],evident
same,exposure time at which upregulation of p53 was evident,p53,≤ 24 h
same,mice tumor-free at end of study,Capan-1 tumors,50%
hRS7-CL2-SN-38,time within which all mice were cured,Calu-3 tumors,≤ 28 days
same,mice tumor-free at end of study,Capan-1 tumors,40%
"N.N.[Cl][Pt][Cl] [cisplatinum, reference compound]",mean tumor volume,[9]; [15],0.758±0.240 cm^3
"N.N.O=C([O-])C1(C(=O)[O-])CCC1.[Pt+2] [carboplatin, reference compound]",mean tumor volume,[9]; day 41 (therapy day 14),0.602±0.224 cm^3
IMMU-132,"Abdominal pain, Grade 3",[10],0
same,"Abdominal pain, Grade 4",[10],0
same,"Anemia, Grade 3",[10],2 (4%)
same,"Anemia, Grade 4",[10],0
same,"Deep vein thrombosis, Grade 3",[10],1 (2%)
same,"Deep vein thrombosis, Grade 4",[10],0
same,"Diarrhea, Grade 3",[10],4 (9%)
same,"Diarrhea, Grade 4",[10],0
same,"Dysgeusia, Grade 3",[10],0
same,"Dysgeusia, Grade 4",[10],0
same,"Fatigue, Grade 3",[10],4 (9%)
same,"Fatigue, Grade 4",[10],0
same,"Hypokalemia, Grade 3",[10],1 (2%)
same,"Hypokalemia, Grade 4",[10],0
same,"Nausea, Grade 3",[10],0
same,"Nausea, Grade 4",[10],0
same,"Neutropenia, Grade 3",[10],11 (24%)
same,"Neutropenia, Grade 4",[10],2 (4%)
same,"Pyrexia, Grade 3",[10],0
same,"Pyrexia, Grade 4",[10],0
same,"Vomiting, Grade 3",[10],1 (2%)
same,"Vomiting, Grade 4",[10],0
same,"WBC Decrease, Grade 3",[10],1 (2%)
same,"WBC Decrease, Grade 4",[10],0
same,neutropenia ≥G3,[10],28%
same,median survival time (MST),"MDA-MB-231 tumors; 0.5 mg twice wkly × 4, endpoint tumor >1.0 cm^3",21 days
same,effect on tumor growth,MDA-MB-231 tumors; FIG. 19,no effect on tumor growth
same,effect on survival,MDA-MB-231 tumors; FIG. 22,no antitumor effect on survival
same,efficacy,"MDA-MB-231 tumors; past studies, FIG. 16",neither IMMU-132 nor irinotecan demonstrated any efficacy
same,gastric cancer patients with SD,advanced GI cancers; 3 with CT assessment,3
same,esophageal cancer patients with PR,advanced GI cancers; 8 with CT assessment,1
same,esophageal cancer patients with SD,advanced GI cancers; 8 with CT assessment,4
same,pancreatic cancer patients with SD as best response,"advanced GI cancers; 15 treated (5 at 8, 7 at 10, 3 at 12 mg/kg)",7
same,CRC patients with SD as best response by RECIST,advanced GI cancers; 29 CRC patients,14
same,CRC patients with PR as best response by RECIST,"advanced GI cancers; 29 CRC patients (9 at 10 mg/kg, 20 at 8 mg/kg)",1
same,extent of the PR,advanced GI cancers; CRC,~65%
same,effect on tumor growth,C13 tumors; FIG. 20,effective to inhibit tumor growth
same,median survival time (MST),C13 tumors,> 70 days
same,CT-assessable PDC patients with SD,[11]; 8 of 13,62%
same,patients with disease response,[11]; 48 patients (excluding PDC),79%
same,antitumor effect compared to saline control,"[9]; 500, 250 or 100 μg i.p. twice weekly for 4 weeks",significant antitumor effect
same,mean tumor volume,[9]; [15],0.745±0.162 cm^3
same,effect on tumor growth,C39 tumors; FIG. 21,effective to inhibit tumor growth
same,median survival time (MST),C39 tumors,> 70 days
same,antitumor effects,HCC1806 TNBC,significant antitumor effects
same,Rad51 in tumors from treated mice,Rad51 [3],up-regulation of Rad51 within 24 h
same,Rad51 up-regulation above untreated background,"Rad51 [12]; C13 and C39, 24 h",~2.5 fold
same,increase in Rad51 level,Rad51 [12]; 25 nM SN-38-equivalents,greater than 2 fold
same,increase in Rad51 level,Rad51 [12]; 100 nM,4 fold
same,increase in Rad51 levels,"Rad51 [12]; MDA-MB-231 cells, 24 h",> 2 fold
same,change in Rad51,"Rad51 [12]; SK-MES-1, HCC1806",Neither SK-MES-1 nor HCC1806 cells demonstrated any increases in Rad51
same,effect on Rad51 levels,Rad51 [12]; SK-MES-1 or HCC1806,no effect
same,antitumor effects,[4],significant antitumor effects
hRS7-SN-38,cumulative human equivalent dose tolerated by monkeys,"[7]; cynomolgus monkey, in vivo",22 mg/m^2
same,dose tolerated by monkeys,"[7]; only minor, reversible toxicities",24 mg SN-38 equivalents/kg
same,reduction in target lesions at first CT assessment,"[11]; person with CRC, starting dose 8 mg/kg",37%
same,SN-38 released daily,[13],50%
same,time within which the conjugate cleared from the serum,[13],≤ 3 days
same,cumulative dose over 1 week without acute toxicity,[14],24 mg/kg SN-38
